Legend:
PARG = PARG (Homo sapiens, UniProt Q86W56); assay: Biochemical assay (PARG, TFMU-ADPr substrate); settings: PARG, TFMU-ADPr substrate
HCC1806 = assay: Cell viability assay (CellTiter-Glo); type: cell-based, Human; settings: Homo sapiens, HCC1806, 168 h, HCC1806, 7 days, CellTiter-Glo; read-out: IC50 (nM) in cell viability assay

PARG, sequence (Q86W56 whole entry): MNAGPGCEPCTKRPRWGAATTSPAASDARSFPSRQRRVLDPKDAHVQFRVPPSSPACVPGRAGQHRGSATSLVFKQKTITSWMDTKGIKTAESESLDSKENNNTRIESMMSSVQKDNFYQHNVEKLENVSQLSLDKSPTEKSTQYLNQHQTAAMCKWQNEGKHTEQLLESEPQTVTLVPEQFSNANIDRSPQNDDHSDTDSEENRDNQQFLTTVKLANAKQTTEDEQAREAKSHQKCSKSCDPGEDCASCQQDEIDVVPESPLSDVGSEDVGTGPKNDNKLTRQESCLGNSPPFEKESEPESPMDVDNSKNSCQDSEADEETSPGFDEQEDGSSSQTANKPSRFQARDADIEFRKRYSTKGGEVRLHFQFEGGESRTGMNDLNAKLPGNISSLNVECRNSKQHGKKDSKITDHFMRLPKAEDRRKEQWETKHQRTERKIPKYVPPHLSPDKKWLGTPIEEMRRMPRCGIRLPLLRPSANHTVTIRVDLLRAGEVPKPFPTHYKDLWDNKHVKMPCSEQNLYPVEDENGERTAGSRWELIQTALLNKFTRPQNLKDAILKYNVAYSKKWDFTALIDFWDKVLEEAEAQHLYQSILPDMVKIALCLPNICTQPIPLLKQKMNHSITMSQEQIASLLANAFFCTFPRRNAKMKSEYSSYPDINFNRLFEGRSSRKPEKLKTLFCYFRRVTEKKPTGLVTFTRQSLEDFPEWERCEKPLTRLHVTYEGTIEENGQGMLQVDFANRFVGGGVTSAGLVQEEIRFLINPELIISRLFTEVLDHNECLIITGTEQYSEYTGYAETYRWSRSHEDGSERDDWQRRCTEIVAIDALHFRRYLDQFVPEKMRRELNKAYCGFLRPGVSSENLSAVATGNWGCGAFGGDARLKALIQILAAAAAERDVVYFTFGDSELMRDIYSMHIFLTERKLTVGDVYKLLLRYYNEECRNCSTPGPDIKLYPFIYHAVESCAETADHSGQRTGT

| IC50 (PARG) [nM] | IC50 (HCC1806) [nM] | SMILES |
| --- | --- | --- |
| 5.62 | 517 | C[C@@H]1CN(c2cc(S(=O)(=O)NC3(C)COC3)cn3c(-c4nnc(C(F)F)s4)ncc23)C[C@@H](C)N1 [Example 180, 3-(5-(difluoromethyl)-1,3,4-thiadiazol-2-yl)-8-((3R,5R)-3,5-dimethylpiperazin-1-yl)-N-(3-methyloxetan-3-yl)imidazo[1,5-a]pyridine-6-sulfonamide] |
| 1.78 | 151 | C[C@H]1CN(c2cc(S(=O)(=O)NC3(C)COC3)cn3c(-c4nnc(C(F)F)s4)ncc23)CCN1 [Example 181, (S)-3-(5-(difluoromethyl)-1,3,4-thiadiazol-2-yl)-N-(3-methyloxetan-3-yl)-8-(3-methylpiperazin-1-yl)imidazo[1,5-a]pyridine-6-sulfonamide] |
| 0.53 | 128 | C[C@H]1CN(c2cc(S(=O)(=O)NC3(C)COC3)cn3c(-c4nnc(C(F)F)s4)cnc23)C[C@H](C)N1 [Example 182, 3-(5-(difluoromethyl)-1,3,4-thiadiazol-2-yl)-8-((3S,5S)-3,5-dimethylpiperazin-1-yl)-N-(3-methyloxetan-3-yl)imidazo[1,2-a]pyridine-6-sulfonamide] |
| 0.91 | 26.8 | [2H]C([2H])([2H])OC1(C(=O)N2CCN(c3cc(S(=O)(=O)NC4(C)COC4)cn4c(-c5nnc(C(F)(F)F)s5)ncc34)CC2)CC1 [Example 183, 8-(4-(1-(methoxy-d3)cyclopropane-1-carbonyl)piperazin-1-yl)-N-(3-methyloxetan-3-yl)-3-(5-(trifluoromethyl)-1,3,4-thiadiazol-2-yl)imidazo[1,5-a]pyridine-6-sulfonamide] |
| 1.15 | 18 | C[C@H]1CN(c2cc(S(=O)(=O)NC3(C)COC3)cn3c(-c4nnc(C(F)(F)F)s4)ncc23)C[C@H](C)N1 [Example 184, 8-((3S,5S)-3,5-dimethylpiperazin-1-yl)-N-(3-methyloxetan-3-yl)-3-(5-(trifluoromethyl)-1,3,4-thiadiazol-2-yl)imidazo[1,5-a]pyridine-6-sulfonamide] |
| 4.58 | 797 | CN(C)CCN(C)C(=O)N1CCN(c2cc(S(=O)(=O)NC3(C)COC3)cn3c(-c4nnc(C(F)(F)F)s4)ncc23)CC1 [Example 185, N-(2-(dimethylamino)ethyl)-N-methyl-4-(6-(N-(3-methyloxetan-3-yl)sulfamoyl)-3-(5-(trifluoromethyl)-1,3,4-thiadiazol-2-yl)imidazo[1,5-a]pyridin-8-yl)piperazine-1-carboxamide] |
| 5.62 | 485 | CC1(NS(=O)(=O)c2cc(N3CCN4C(=O)CCC4C3)c3cnc(-c4nnc(C(F)(F)F)s4)n3c2)COC1 (stereo not shown) [Example 186, N-(3-methyloxetan-3-yl)-8-(6-oxohexahydropyrrolo[1,2-a]pyrazin-2(1H)-yl)-3-(5-(trifluoromethyl)-1,3,4-thiadiazol-2-yl)imidazo[1,5-a]pyridine-6-sulfonamide] |
| 3.37 | 874 | CN(C)CCN(C)C(=O)N1CCN(c2cc(S(=O)(=O)NC3(C)COC3)cn3c(-c4nnc(C(F)F)s4)ncc23)CC1 [Example 187, 4-(3-(5-(difluoromethyl)-1,3,4-thiadiazol-2-yl)-6-(N-(3-methyloxetan-3-yl)sulfamoyl)imidazo[1,5-a]pyridin-8-yl)-N-(2-(dimethylamino)ethyl)-N-methylpiperazine-1-carboxamide] |
| 0.71 | 85 | CN(C)CCN(C)C(=O)N1CCN(c2cc(S(=O)(=O)NC3(C)COC3)cn3c(-c4nnc(C(F)F)s4)nc(Cl)c23)CC1 [Example 188, 4-(1-chloro-3-(5-(difluoromethyl)-1,3,4-thiadiazol-2-yl)-6-(N-(3-methyloxetan-3-yl)sulfamoyl)imidazo[1,5-a]pyridin-8-yl)-N-(2-(dimethylamino)ethyl)-N-methylpiperazine-1-carboxamide] |
| 3.55 | 112 | C[C@H]1CN(c2cc(S(=O)(=O)NC3(C)COC3)cn3c(-c4nnc(C(F)(F)F)s4)cnc23)C[C@H](C)N1 [Example 189, 8-((3S,5S)-3,5-dimethylpiperazin-1-yl)-N-(3-methyloxetan-3-yl)-3-(5-(trifluoromethyl)-1,3,4-thiadiazol-2-yl)imidazo[1,2-a]pyridine-6-sulfonamide] |
| 32 | 723 | CC1(NS(=O)(=O)c2cc(N3CCN[C@H](CF)C3)c3cnc(-c4nnc(C(F)F)s4)n3c2)COC1 [Example 191, (S)-3-(5-(difluoromethyl)-1,3,4-thiadiazol-2-yl)-8-(3-(fluoromethyl)piperazin-1-yl)-N-(3-methyloxetan-3-yl)imidazo[1,5-a]pyridine-6-sulfonamide] |
| 0.83 | 30 | COC1(C(=O)N2CCN(c3cc(S(=O)(=O)NC4(C#N)CC4)cn4c(-c5nnc(C(F)F)s5)ncc34)CC2)CC1 [Example 192, N-(1-cyanocyclopropyl)-3-(5-(difluoromethyl)-1,3,4-thiadiazol-2-yl)-8-(4-(1-methoxycyclopropane-1-carbonyl)piperazin-1-yl)imidazo[1,5-a]pyridine-6-sulfonamide] |
| 3.21 | 84.8 | COC1(C(=O)N2CCN(c3cc(S(=O)(=O)NC4CC4)cn4c(-c5nnc(C(F)(F)F)s5)ncc34)CC2)CC1 [Example 194, N-cyclopropyl-8-(4-(1-methoxycyclopropane-1-carbonyl)piperazin-1-yl)-3-(5-(trifluoromethyl)-1,3,4-thiadiazol-2-yl)imidazo[1,5-a]pyridine-6-sulfonamide] |
| 5.62 | 666 | COC1(C(=O)N2CCN(c3c(F)c(S(=O)(=O)NC4CC4)cn4c(-c5nnc(C(F)(F)F)s5)ncc34)CC2)CC1 [Example 195, N-cyclopropyl-7-fluoro-8-(4-(1-methoxycyclopropane-1-carbonyl)piperazin-1-yl)-3-(5-(trifluoromethyl)-1,3,4-thiadiazol-2-yl)imidazo[1,5-a]pyridine-6-sulfonamide] |
| < 0.1 | 6.34 | COC1(C(=O)N2CCN(c3cc(S(=O)(=O)NC4(C)CC4)cn4c(-c5nnc(C(F)F)s5)ncc34)CC2)CC1 [Example 196, 3-(5-(difluoromethyl)-1,3,4-thiadiazol-2-yl)-8-(4-(1-methoxycyclopropane-1-carbonyl)piperazin-1-yl)-N-(1-methylcyclopropyl)imidazo[1,5-a]pyridine-6-sulfonamide] |
| 0.19 | 6.58 | COC1(C(=O)N2CCN(c3cc(S(=O)(=O)NC4(C)CC4)cn4c(-c5nnc(C(F)F)s5)ncc34)C[C@H]2C)CC1 [Example 197, (R)-3-(5-(difluoromethyl)-1,3,4-thiadiazol-2-yl)-8-(4-(1-methoxycyclopropane-1-carbonyl)-3-methylpiperazin-1-yl)-N-(1-methylcyclopropyl)imidazo[1,5-a]pyridine-6-sulfonamide] |
| 0.66 | 27.8 | COC1(C(=O)N2CCN(c3c(F)c(S(=O)(=O)NC4(C)CC4)cn4c(-c5nnc(C(F)F)s5)ncc34)CC2)CC1 [Example 198, 3-(5-(difluoromethyl)-1,3,4-thiadiazol-2-yl)-7-fluoro-8-(4-(1-methoxycyclopropane-1-carbonyl)piperazin-1-yl)-N-(1-methylcyclopropyl)imidazo[1,5-a]pyridine-6-sulfonamide] |

Source: patent US20260258035A1, “FIVE-MEMBERED AND SIX-MEMBERED NITROGEN-CONTAINING COMPOUND, AND INTERMEDIATE, PREPARATION METHOD AND USE THEREOF” (HANGZHOU SYNRX THERAPEUTICS BIOMEDICAL TECHNOLOGY CO., LTD., priority 2022, published 2026)
